Assay results as given in patent US9834542B2, “LXR modulators” (BRISTOL-MYERS SQUIBB COMPANY, priority 2013, dated 2017).

Biological target: T1, LXRβ (Homo sapiens, UniProt P55055)
T1 construct: Co-transfection expression plasmids, comprising full-length LXRα (pCMX-h LXRα[…] or LXRβ (pCMX-hLXRβ)); expressed in transfected cells; host or cells: CV-1 African Green Monkey Kidney Cells
T1 sequence (P55055 1-460): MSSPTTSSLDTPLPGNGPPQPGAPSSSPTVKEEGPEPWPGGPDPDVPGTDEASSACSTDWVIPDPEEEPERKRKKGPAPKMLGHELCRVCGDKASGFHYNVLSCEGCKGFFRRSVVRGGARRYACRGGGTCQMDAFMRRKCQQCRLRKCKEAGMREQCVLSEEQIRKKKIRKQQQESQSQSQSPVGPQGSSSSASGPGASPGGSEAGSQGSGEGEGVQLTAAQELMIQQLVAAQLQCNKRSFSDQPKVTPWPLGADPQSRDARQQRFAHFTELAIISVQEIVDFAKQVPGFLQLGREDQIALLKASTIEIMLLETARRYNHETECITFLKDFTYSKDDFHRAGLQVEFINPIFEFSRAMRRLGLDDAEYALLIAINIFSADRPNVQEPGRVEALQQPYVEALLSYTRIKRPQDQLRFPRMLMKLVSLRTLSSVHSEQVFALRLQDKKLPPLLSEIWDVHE
T1 sequence (P19793 1-462 partner): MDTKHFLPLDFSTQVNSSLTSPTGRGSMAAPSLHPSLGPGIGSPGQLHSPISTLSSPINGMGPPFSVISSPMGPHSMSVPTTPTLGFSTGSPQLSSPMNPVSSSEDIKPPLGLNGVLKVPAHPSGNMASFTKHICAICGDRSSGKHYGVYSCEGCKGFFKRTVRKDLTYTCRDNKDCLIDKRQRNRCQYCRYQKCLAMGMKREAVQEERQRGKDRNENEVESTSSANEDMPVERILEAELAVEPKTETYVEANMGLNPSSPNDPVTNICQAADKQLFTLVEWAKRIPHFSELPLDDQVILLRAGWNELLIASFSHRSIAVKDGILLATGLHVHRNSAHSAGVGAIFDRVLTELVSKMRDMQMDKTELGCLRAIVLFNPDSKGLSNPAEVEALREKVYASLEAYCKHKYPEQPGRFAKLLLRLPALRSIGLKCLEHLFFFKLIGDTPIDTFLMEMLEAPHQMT
Assay: Co-transfection assay (LXRE luciferase reporter), LXRβ
Assay type: cell-based
Parameters: % Efficacy: concentration or dose not given beside the values
Conditions: for EC50: CV-1 cells transfected with pCMX-hLXRβ and LXREx1-Tk-Luciferase, 20 hours incubation; for Emax: read-out: % Efficacy
Outline: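 Luciferase signal from an LXREx1-Tk reporter was measured after transfected CV-1 cells (full-length hLXRβ, endogenous RXR) were treated with compounds for 20 h at 37 °C, ≤0.5% DMSO. EC50 came from four-parameter fits of 11-point ½-log curves; % efficacy versus a reference agonist maximum.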

[1] = LXRβ co-transfection, relative to high control 1-(2,4-difluorobenzyl)-2-oxo-6-(4-phenoxyphenyl)-4-(trifluoromethyl)-1,2-dihydropyridine-3-carbonitrile

Row | SMILES | EC50 | Emax [1] | % Efficacy [1]
1 | Cc1nc(C(F)(F)F)cn1-c1ccc(-c2cc(F)c(CO)c(S(C)(=O)=O)c2)cc1-c1nc(C(C)CO)oc1-c1ccc(OC(F)(F)F)cc1 (centres unmarked) [Example 554, 2-(4-(3′-fluoro-4′-(hydroxymethyl)-4-(2-methyl-4-(trifluoromethyl)-1H-imidazol-1-yl)-5′-(methylsulfonyl)-[1,1′-biphenyl]-3-yl)-5-(4-(trifluoromethoxy)phenyl)oxazol-2-yl)propan-1-ol] | 226 nM | 31% | 
2 | CCOCc1ccc(-c2ccc(-n3cc(C(F)(F)F)nc3C)c(-n3nncc3-c3ccc(OC(F)(F)F)cc3)c2)cc1S(C)(=O)=O [Example 85, 1-{4′-[(ethyloxy)methyl]-3′-(methylsulfonyl)-4-[2-methyl-4-(trifluoromethyl)-1H-imidazol-1-yl]biphenyl-3-yl}-5-{4-[(trifluoromethyl)oxy]phenyl}-1H-1,2,3-triazole] | 118 nM | 123% | 
3 | Cc1nc(C(F)(F)F)cn1-c1ccc(-c2cccc(S(C)(=O)=O)c2)cc1-n1nncc1-c1ccc(Cl)c(OC(F)(F)F)c1 [Example 35, 5-{4-chloro-3-[(trifluoromethyl)oxy]phenyl}-1-{3′-(methylsulfonyl)-4-[2-methyl-4-(trifluoromethyl)-1H-imidazol-1-yl]biphenyl-3-yl}-1H-1,2,3-triazole] | 663 nM | 68% | 
4 | Cc1cc(-c2oc(C)nc2-c2cc(-c3cc(F)c(CO)c(S(C)(=O)=O)c3)ccc2-n2cc(C(F)(F)F)nc2C)cc(Cl)n1 [Example 452, (3′-(5-(2-chloro-6-methylpyridin-4-yl)-2-methyloxazol-4-yl)-3-fluoro-4′-(2-methyl-4-(trifluoromethyl)-1H-imidazol-1-yl)-5-(methylsulfonyl)biphenyl-4-yl)methanol] | 83 nM |  | 55%
5 | COCCc1nc(-c2cc(-c3cccc(S(C)(=O)=O)c3)ccc2-n2cc(C(F)(F)F)nc2C)c(-c2ccc(OC(F)(F)F)cc2)o1 [Example 564, 2-(2-methoxyethyl)-4-(4-(2-methyl-4-(trifluoromethyl)-1H-imidazol-1-yl)-3′-(methylsulfonyl)-[1,1′-biphenyl]-3-yl)-5-(4-(trifluoromethoxy)phenyl)oxazole] | 164 nM | 57% | 
6 | Cc1nc(-c2cc(-c3cc(F)c(CO)c(S(C)(=O)=O)c3)ccc2-n2cc(C(F)(F)F)nc2C)c(-c2cccnc2C)o1 [Example 395, (3-fluoro-4′-(2-methyl-4-(trifluoromethyl)-1H-imidazol-1-yl)-3′-(2-methyl-5-(2-methylpyridin-3-yl)oxazol-4-yl)-5-(methylsulfonyl)biphenyl-4-yl)methanol] | 1230 nM | 61% | 
7 | Cc1nc(-c2cc(-c3cccc(S(C)(=O)=O)c3)ccc2-n2cc(C(F)(F)F)nc2C)c(-c2ccc(OC(F)(F)C(F)(F)F)cc2)o1 [Example 572, 2-methyl-4-(4-(2-methyl-4-(trifluoromethyl)-1H-imidazol-1-yl)-3′-(methylsulfonyl)-[1,1′-biphenyl]-3-yl)-5-(4-(perfluoroethoxy)phenyl)oxazole] | 95 nM | 46% | 
8 | Cc1nc(-c2ccc(OC(F)F)cc2)c(-c2cc(-c3ccc(CO)c(S(C)(=O)=O)c3)ccc2-n2cc(C(F)(F)F)nc2C)o1 [Example 625, (3′-(4-(4-(difluoromethoxy)phenyl)-2-methyloxazol-5-yl)-4′-(2-methyl-4-(trifluoromethyl)-1H-imidazol-1-yl)-3-(methylsulfonyl)-[1,1′-biphenyl]-4-yl)methanol] | 73 nM | 117% | 
9 | Cc1nc(C(F)(F)F)c(Cl)n1-c1ccc(-c2cc(Cl)c(CO)c(S(C)(=O)=O)c2)cc1-n1nncc1-c1ccc(OC(F)(F)F)cc1 [Example 60, {3-chloro-4′-[5-chloro-2-methyl-4-(trifluoromethyl)-1H-imidazol-1-yl]-5-(methylsulfonyl)-3′-(5-{4-[(trifluoromethyl)oxy]phenyl}-1H-1,2,3-triazol-1-yl)biphenyl-4-yl}methanol] | 245 nM | 121% | 
10 | CS(=O)(=O)c1cccc(-c2ccc(-n3cc(C(F)(F)F)nc3C(F)F)c(-n3nncc3-c3ccc(Cl)cc3)c2)c1 [Example 225, 5-(4-chlorophenyl)-1-(4-(2-(difluoromethyl)-4-(trifluoromethyl)-1H-imidazol-1-yl)-3′-(methylsulfonyl)-[1,1′-biphenyl]-3-yl)-1H-1,2,3-triazole] | 1100 nM | 91% | 
11 | Cc1nc(C(C)(F)F)cn1-c1ccc(-c2cccc(S(C)(=O)=O)c2)cc1-n1nncc1-c1ccc(OC(F)(F)F)cc1 [Example 165, 1-{4-[4-(1,1-difluoroethyl)-2-methyl-1H-imidazol-1-yl]-3′-(methylsulfonyl)biphenyl-3-yl}-5-{4-[(trifluoromethyl)oxy]phenyl}-1H-1,2,3-triazole] | 643 nM | 66% | 
12 | Cc1ncc(-c2oc(C)nc2-c2cc(-c3cc(F)c(CO)c(S(C)(=O)=O)c3)ccc2-n2cc(C(F)(F)F)nc2C)cn1 [Example 428, (3-fluoro-4′-(2-methyl-4-(trifluoromethyl)-1H-imidazol-1-yl)-3′-(2-methyl-5-(2-methylpyrimidin-5-yl)oxazol-4-yl)-5-(methylsulfonyl)biphenyl-4-yl)methanol] | 3090 nM | 50% | 
13 | Cc1nc(-c2cc(-c3cccc(S(C)(=O)=O)c3)ccc2-n2cc(C(F)(F)F)nc2C)c(-c2ccc(OC(F)F)nc2)o1 [Example 384, 5-(6-(difluoromethoxy)pyridin-3-yl)-2-methyl-4-(4-(2-methyl-4-(trifluoromethyl)-1H-imidazol-1-yl)-3′-(methylsulfonyl)biphenyl-3-yl)oxazole] | 12 nM | 72% | 
14 | Cc1nc(-c2cc(-c3cccc(S(C)(=O)=O)c3)ccc2-n2cc(C(F)(F)F)nc2C)c(-c2ccccc2OC(F)F)o1 [Example 547, 5-(2-(difluoromethoxy)phenyl)-2-methyl-4-(4-(2-methyl-4-(trifluoromethyl)-1H-imidazol-1-yl)-3′-(methylsulfonyl)-[1,1′-biphenyl]-3-yl)oxazole] | 474 nM | 39% | 
15 | CCS(=O)(=O)c1cccc(-c2ccc(-n3cc(C(F)F)nc3C)c(-n3nncc3C(C)c3ccc(Cl)cc3)c2)c1 (centres unmarked) [Example 131, 5-[1-(4-chlorophenyl)ethyl]-1-{4-[4-(difluoromethyl)-2-methyl-1H-imidazol-1-yl]-3′-(ethylsulfonyl)biphenyl-3-yl}-1H-1,2,3-triazole] | 821 nM | 77% | 
16 | Cc1nc(C(F)(F)F)cn1-c1ccc(-c2cc(F)c(CO)c(S(C)(=O)=O)c2)cc1-n1nncc1-c1ccc(OC(F)(F)F)cc1 [Example 211, (3-fluoro-4′-(2-methyl-4-(trifluoromethyl)-1H-imidazol-1-yl)-5-(methylsulfonyl)-3′-(5-(4-(trifluoromethoxy)phenyl)-1H-1,2,3-triazol-1-yl)-[1,1′-biphenyl]-4-yl)methanol] | 127 nM | 99% | 
17 | Cc1nc(C(F)(F)F)cn1-c1ccc(-c2cccc(S(C)(=O)=O)c2)cc1-c1oc(CC(=O)O)nc1-c1ccc(OC(F)(F)F)cc1 [Example 610, 2-(5-(4-(2-methyl-4-(trifluoromethyl)-1H-imidazol-1-yl)-3′-(methylsulfonyl)-[1,1′-biphenyl]-3-yl)-4-(4-(trifluoromethoxy)phenyl)oxazol-2-yl)acetic acid] | 257 nM | 94% | 
18 | Cc1nc(C(F)(F)F)cn1-c1ccc(-c2cc(F)c(CO)c(S(C)(=O)=O)c2)c(Cl)c1-n1nncc1-c1ccc(Cl)cc1Cl [Example 103, {2′-chloro-3′-[5-(2,4-dichlorophenyl)-1H-1,2,3-triazol-1-yl]-3-fluoro-5-(methylsulfonyl)-4′-[2-methyl-4-(trifluoromethyl)-1H-imidazol-1-yl]biphenyl-4-yl}methanol] | 1240 nM | 52% | 
19 | Cc1nc(C(F)(F)F)cn1-c1ccc(-c2cc(Cl)c(CO)c(S(C)(=O)=O)c2)cc1-n1nncc1-c1ccc(OC(F)(F)F)cc1 [Example 212, (3-chloro-4′-(2-methyl-4-(trifluoromethyl)-1H-imidazol-1-yl)-5-(methylsulfonyl)-3′-(5-(4-(trifluoromethoxy)phenyl)-1H-1,2,3-triazol-1-yl)-[1,1′-biphenyl]-4-yl)methanol] | 430 nM | 101% | 
